Molecular target: human capsaicin receptor (VR1) (Homo sapiens, UniProt Q8NER1)
Assay: Capsaicin receptor binding assay ([3H]RTX competition, VR1-transfected HEK293 membranes)

human capsaicin receptor (VR1), sequence (Q8NER1 whole entry): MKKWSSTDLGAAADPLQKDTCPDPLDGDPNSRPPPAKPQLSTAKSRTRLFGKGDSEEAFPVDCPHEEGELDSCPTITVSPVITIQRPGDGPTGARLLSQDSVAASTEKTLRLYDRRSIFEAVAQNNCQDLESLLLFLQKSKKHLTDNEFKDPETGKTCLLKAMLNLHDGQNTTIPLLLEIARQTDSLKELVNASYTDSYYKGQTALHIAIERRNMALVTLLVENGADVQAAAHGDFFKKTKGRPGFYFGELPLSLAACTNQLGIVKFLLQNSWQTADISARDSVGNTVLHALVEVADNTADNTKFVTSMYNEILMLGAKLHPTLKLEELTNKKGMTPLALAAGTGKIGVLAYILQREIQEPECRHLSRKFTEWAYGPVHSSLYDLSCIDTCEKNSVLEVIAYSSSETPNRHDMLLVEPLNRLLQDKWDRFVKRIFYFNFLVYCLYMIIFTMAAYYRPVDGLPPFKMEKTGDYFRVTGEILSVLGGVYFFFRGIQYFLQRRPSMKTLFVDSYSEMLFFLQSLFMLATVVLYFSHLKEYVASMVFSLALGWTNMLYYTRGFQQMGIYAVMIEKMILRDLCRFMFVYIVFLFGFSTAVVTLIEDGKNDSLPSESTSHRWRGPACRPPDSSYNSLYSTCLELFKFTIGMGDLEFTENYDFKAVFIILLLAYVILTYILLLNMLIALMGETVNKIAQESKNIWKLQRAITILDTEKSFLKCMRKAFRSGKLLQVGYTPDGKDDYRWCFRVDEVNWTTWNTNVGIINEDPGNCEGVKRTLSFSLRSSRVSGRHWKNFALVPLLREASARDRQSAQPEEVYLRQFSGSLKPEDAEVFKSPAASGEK

Ki [µM] | SMILES
< 1 | OCC1CCN(Cc2nc(Nc3ccc(C(F)(F)F)nc3)c3ccc(-c4ncccc4C(F)(F)F)cc3n2)CC1 [Compound 482, {1-[7-(3-Trifluoromethyl-pyridin-2-yl)-4-(6-trifluoromethyl-pyridin-3-ylamino)-quinazolin-2-ylmethyl]-piperidin-4-yl}-methanol]
< 1 | CC(C)(C)c1ccc(Nc2nc(C(C)(C)CO)nc3cc(-c4ncccc4C(F)(F)F)ccc23)cc1 [Compound 217, 2-[4-(4-tert-Butyl-phenylamino)-7-(3-trifluoromethyl-pyridin-2-yl)-quinazolin-2-yl]-2-methyl-propan-1-ol]
< 1 | C[C@H]1CN(Cc2nc(Nc3ccc(C(C)(C)C)cc3)c3ccc(-c4ncccc4C(F)(F)F)cc3n2)CCO1 [Compound 685, (S)-(4-tert-Butyl-phenyl)-[2-(2-methyl-morpholin-4-ylmethyl)-7-(3-trifluoromethyl-pyridin-2-yl)-quinazolin-4-yl]-amine]
< 1 | CN(C)CCCN1CCN(Cc2nc(Nc3ccc(C(F)(F)F)cc3)c3ccc(-c4ncccc4C(F)(F)F)cc3n2)CC1 [Compound 519, [2-[4-(3-Dimethylamino-propyl)-piperazin-1-ylmethyl]-7-(3-trifluoromethyl-pyridin-2-yl)-quinazolin-4-yl]-(4-trifluoromethyl-phenyl)-amine]
< 1 | CC(C)(C)c1ccc(Nc2nc(CCCO)nc3cc(-c4ncccc4C(F)(F)F)ccc23)cn1 [Compound 16, 3-[4-(6-tert-Butyl-pyridin-3-ylamino)-7-(3-trifluoromethyl-pyridin-2-yl)-quinazolin-2-yl]-propan-1-ol]
< 1 | FC(F)(F)c1ccc(Nc2cc(CN3CCCCC3)nc3nc(-c4ncccc4C(F)(F)F)ccc23)cc1 [Compound 799, [2-Piperidin-1-ylmethyl-7-(3-trifluoromethyl-pyridin-2-yl)-[1,8]naphthyridin-4-yl]-(4-trifluoromethyl-phenyl)-amine]
< 1 | CC(C)OCc1nc(Nc2ccc(S(=O)(=O)N3CCOCC3)cc2)c2ccc(-c3ncccc3C(F)(F)F)cc2n1 [Compound 128, [2-Isopropoxymethyl-7-(3-trifluoromethyl-pyridin-2-yl)-quinazolin-4-yl]-[4-(morpholine-4-sulfonyl)-phenyl]-amine]
< 1 | CC(C)(C)c1ccc(Nc2nc(CN3CCCC3)nc3cc(-c4ncccc4C(F)(F)F)ccc23)cc1 [Compound 475, (4-tert-Butyl-phenyl)-[2-pyrrolidin-1-ylmethyl-7-(3-trifluoromethyl-pyridin-2-yl)-quinazolin-4-yl]-amine]

More lines, now with the values behind:

SMILES | Ki [µM]
COCc1nc(Nc2ccc(C(C)(C)C(C)=O)cc2)c2ccc(-c3ncccc3C(F)(F)F)nc2n1 [Compound 208, 3-{4-[2-Methoxymethyl-7-(3-trifluoromethyl-pyridin-2-yl)-pyrido[2,3-d]pyrimidin-4-ylamino]-phenyl}-3-methyl-butan-2-one] | < 1
C[C@H]1CN(Cc2nc(Nc3ccc(C(F)(F)F)cc3)c3ncc(-c4ncccc4C(F)(F)F)cc3n2)C[C@H](C)O1 [Compound 658, (S,S)-[2-(2,6-Dimethyl-morpholin-4-ylmethyl)-7-(3-trifluoromethyl-pyridin-2-yl)-pyrido[3,2-d]pyrimidin-4-yl]-(4-trifluoromethyl-phenyl)-amine] | < 1
CCC(C)c1ccc(Nc2nc(COC)nc3nc(-c4ncccc4C)ccc23)cc1 (centres unmarked) [Compound 97, (4-sec-Butyl-phenyl)-[2-methoxymethyl-7-(3-methyl-pyridin-2-yl)-pyrido[2,3-d]pyrimidin-4-yl]-amine] | < 1
COCc1nc(Nc2ccc(C(C)(C)C(C)=O)cc2)c2ccc(-c3ncccc3Cl)nc2n1 [Compound 213, 3-{4-[7-(3-Chloro-pyridin-2-yl)-2-methoxymethyl-pyrido[2,3-d]pyrimidin-4-ylamino]-phenyl}-3-methyl-butan-2-one] | < 1
C=CCN(C)CCc1nc(Nc2ccc(C(F)(F)F)cc2)c2ccc(-c3ncccc3C(F)(F)F)cc2n1 [Compound 410, [2-[(Allyl-methyl-amino)-ethyl]-7-(3-trifluoromethyl-pyridin-2-yl)-quinazolin-4-yl]-(4-trifluoromethyl-phenyl)-amine] | < 1
FC(F)(F)c1ccc(Nc2nc(CNCc3ccccc3)nc3cc(-c4ncccc4C(F)(F)F)ccc23)cn1 [Compound 574, [2-(Benzylamino-methyl)-7-(3-trifluoromethyl-pyridin-2-yl)-quinazolin-4-yl]-(6-trifluoromethyl-pyridin-3-yl)-amine] | < 1
O=C(NCCN1CCOCC1)c1nc(Nc2ccc(C(F)(F)F)cc2)c2ccc(-c3ncccc3C(F)(F)F)nc2n1 [Compound 442, 4-(4-Trifluoromethyl-phenylamino)-7-(3-trifluoromethyl-pyridin-2-yl)-pyrido[2,3-d]pyrimidine-2-carboxylic acid (2-morpholin-4-yl-ethyl)-amide] | < 1
CC(C)c1ccc(Nc2nc(CN3CCO[C@@H](C)C3)nc3cc(-c4ncccc4Cl)ccc23)cc1 [Compound 648, (S)-[7-(3-Chloro-pyridin-2-yl)-2-(2-methyl-morpholin-4-ylmethyl)-quinazolin-4-yl]-(4-isopropyl-phenyl)-amine] | < 1
C[C@@H]1CN(Cc2nc(Nc3ccc(S(=O)(=O)C(F)(F)F)cc3)c3ncc(-c4ncccc4Cl)cc3n2)C[C@H](C)O1 [Compound 617, [7-(3-Chloro-pyridin-2-yl)-2-(2,6-dimethyl-morpholin-4-ylmethyl)-pyrido[3,2-d]pyrimidin-4-yl]-(4-trifluoromethanesulfonyl-phenyl)-amine (cis)] | < 1
COCc1nc(Nc2ccc(C(C)(C)C)nc2)c2ccc(-c3ncccc3Cl)nc2n1 [Compound 199, (6-tert-Butyl-pyridin-3-yl)-[7-(3-chloro-pyridin-2-yl)-2-methoxymethyl-pyrido[2,3-d]pyrimidin-4-yl]-amine] | < 1
COCc1nc(Nc2ccc(Cl)cc2)c2ccc(-c3ncccc3C(F)(F)F)nc2n1 [Compound 287, (4-Chloro-phenyl)-[2-methoxymethyl-7-(3-trifluoromethyl-pyridin-2-yl)-pyrido[2,3-d]pyrimidin-4-yl]-amine] | < 1
CC(C)CCOCc1cc(Nc2ccc(C(F)(F)F)cc2)c2ccc(-c3ncccc3C(F)(F)F)nc2n1 [Compound 312, [2-(3-Methyl-butoxymethyl)-7-(3-trifluoromethyl-pyridin-2-yl)-[1,8]naphthyridin-4-yl]-(4-trifluoromethyl-phenyl)-amine] | < 1
CC(C)N(C)Cc1nc(Nc2ccc(C(F)(F)F)nc2)c2ccc(-c3ncccc3C(F)(F)F)cc2n1 [Compound 378, [2-[(Isopropyl-methyl-amino)-methyl]-7-(3-trifluoromethyl-pyridin-2-yl)-quinazolin-4-yl]-(6-trifluoromethyl-pyridin-3-yl)-amine] | < 1
COCc1nc(Nc2ccc(C(C)(C)C)cc2)c2ccc(-c3ncccc3C)nc2n1 [Compound 95, (4-tert-Butyl-phenyl)-[2-methoxymethyl-7-(3-methyl-pyridin-2-yl)-pyrido[2,3-d]pyrimidin-4-yl]-amine] | < 1
CC(=O)c1ccc(Nc2nc(COCC(C)C)nc3nc(-c4ncccc4C(F)(F)F)ccc23)cc1 [Compound 250, 1-{4-[2-Isobutoxymethyl-7-(3-trifluoromethyl-pyridin-2-yl)-pyrido[2,3-d]pyrimidin-4-ylamino]-phenyl}-ethanone] | < 1
